Experimental data taken from PubChem BioAssay (NCI).
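Five compound concentrations were applied to cells in 96-well plates for 48 hours; endpoints were derived by simple linear interpolation of the resulting dose-response curve. At the GI50, growth is halved. TGI marks complete inhibition of growth.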

Tests used:
Assay in all cases: NCI anticancer screen, dose series, 48 h
HCC-2998 colon = tested on: HCC-2998 colon
SK-MEL-2 melanoma = tested on: SK-MEL-2 melanoma
IGROV1 ovarian = tested on: IGROV1 ovarian
RXF 393 renal = tested on: RXF 393 renal
ACHN renal = tested on: ACHN renal
SNB-19 CNS = tested on: SNB-19 CNS
M14 melanoma = tested on: M14 melanoma
UACC-62 melanoma = tested on: UACC-62 melanoma
NCI-H23 lung = tested on: NCI-H23 lung
CAKI-1 renal = tested on: CAKI-1 renal

| Compound | TGI (HCC-2998 colon) | TGI (SK-MEL-2 melanoma) | TGI (IGROV1 ovarian) | TGI (RXF 393 renal) | TGI (ACHN renal) | TGI (SNB-19 CNS) | TGI (M14 melanoma) | TGI (UACC-62 melanoma) | TGI (NCI-H23 lung) | TGI (CAKI-1 renal) | GI50 (CAKI-1 renal) | GI50 (HCC-2998 colon) | GI50 (SK-MEL-2 melanoma) | GI50 (IGROV1 ovarian) | GI50 (RXF 393 renal) | GI50 (ACHN renal) | GI50 (M14 melanoma) | GI50 (UACC-62 melanoma) | GI50 (NCI-H23 lung) |
| --- | --- | --- | --- | --- | --- | --- | --- | --- | --- | --- | --- | --- | --- | --- | --- | --- | --- | --- | --- |
| CC(=O)Oc1ccn2nc(C)c(Br)c2c1 | > 100 µM | > 100 µM | > 100 µM | > 100 µM | > 100 µM | > 100 µM | > 100 µM | > 100 µM | > 100 µM |  |  |  |  |  |  |  |  |  |  |
| CN(C)CCCNC(=O)N/N=C/c1ccccc1 |  | > 100 µM | > 100 µM | > 100 µM | > 100 µM | > 100 µM |  | > 100 µM |  |  |  |  |  |  |  |  |  |  |  |
| CNC(=S)N1CCN(C(C)=O)C1=S | > 100 µM | 5.36 µM | > 100 µM |  | > 100 µM |  | > 100 µM | > 100 µM | > 100 µM | > 100 µM |  |  |  |  |  |  |  |  |  |
| C=C1[C@@H]2CCC3[C@]4(C)C(CC[C@@]5(C)C(=O)O[C@H](O)[C@@H]45)[C@H](O)[C@]3(C2)[C@H]1OC1OC(CO)C(O)C(O)C1O (stereo partly drawn) |  | > 50 µM | > 50 µM | > 50 µM | > 50 µM | > 50 µM | > 50 µM | > 50 µM | > 50 µM |  |  |  |  |  |  |  |  |  |  |
| COc1ccc(C(=O)/C=C/SC(=NC#N)SC)cc1 |  | 43.8 µM | 57.3 µM | 35.1 µM | 46.7 µM | 35.2 µM | 35.1 µM | 43.8 µM | 33.2 µM | 54.8 µM |  |  |  |  |  |  |  |  |  |
| COc1ccc([C@]23CCC4(OCC(C)(C)CO4)[C@H]4CON(O[C@H](O[C@@H]5CCCCC5C(C)(C)c5ccccc5)C2)[C@@H]43)cc1OC (stereo partly drawn) | > 100 µM | > 100 µM | > 100 µM | > 100 µM |  | > 100 µM | > 100 µM | > 100 µM | > 100 µM | 39 µM |  |  |  |  |  |  |  |  |  |
| CO[P@@]1(=O)O[C@@H](c2ccccc2)[C@H](O)[C@]1(O)c1ccccc1 |  | > 100 µM | > 100 µM | > 100 µM | > 100 µM | > 100 µM | > 100 µM | > 100 µM | > 100 µM | > 100 µM |  |  |  |  |  |  |  |  |  |
| O=C1c2cc3c(cc2-c2c1c1ccc(Cl)cc1c(=O)n2CCCn1ccnc1)OCO3 | > 100 µM | > 100 µM | > 100 µM | 0.0518 µM | 1.09 µM |  | 11.9 µM | 0.0296 µM | 0.317 µM | > 100 µM | < 0.01 µM | 0.0737 µM | 0.649 µM | 0.0656 µM | < 0.01 µM | < 0.01 µM | < 0.01 µM | < 0.01 µM | < 0.01 µM |
| NC(=O)C1CCN(Cc2c(Cl)c(Cl)c(CN3CCC(C(N)=O)CC3)c(Cl)c2Cl)CC1 | > 100 µM | > 100 µM |  | > 100 µM | > 100 µM | > 100 µM | > 100 µM | > 100 µM | > 100 µM | > 100 µM |  |  |  |  |  |  |  |  |  |
| CSc1nc(Cl)c2c(n1)Sc1nc3ccccc3n1C2O (stereo not drawn) | 13.6 µM | > 47.4 µM | > 100 µM | 20.8 µM | > 100 µM | 97.1 µM | > 100 µM | > 100 µM | > 100 µM |  |  |  |  |  |  |  |  |  |  |
| O=c1c2c3c(sc2nc2n1N=C(c1ccc(Br)cc1)CS2)CCCC3 | > 100 µM |  | > 100 µM | > 100 µM | > 100 µM | > 100 µM | > 100 µM | > 100 µM | > 100 µM | > 100 µM |  |  |  |  |  |  |  |  |  |
| CCCCNC(=O)Cn1c2ccc(Br)cc2c2nc3ccccc3nc21 |  | > 100 µM | > 100 µM | > 100 µM | > 100 µM | > 100 µM | > 100 µM | > 100 µM | > 100 µM | > 100 µM |  |  |  |  |  |  |  |  |  |
| CSc1ccc(/C=C2\N=C(c3ccccc3)N(c3nc4cc(Cl)c(F)cc4s3)C2=O)cc1 | > 100 µM | 50.4 µM | > 100 µM | 57.5 µM | > 100 µM | 76.6 µM | > 100 µM | > 100 µM |  | > 100 µM |  |  |  |  |  |  |  |  |  |
| CN1c2ccccc2C2=C(c3ccccc3)CC[C@@H](C(=O)N3C4CC5CC[C@@]4(CS3(=O)=O)C5(C)C)[C@@H]21 (stereo partly drawn) |  |  | > 100 µM |  | > 100 µM | > 100 µM | > 100 µM | > 100 µM | > 100 µM | > 100 µM |  |  |  |  |  |  |  |  |  |
| CC(=N/NC(=S)N(C)C)/C(=N\NC(=S)N(C)C)c1ccccc1 | 2.99 µM | 4.69 µM | 3.36 µM | 2.95 µM | 3.26 µM | 6.85 µM | 4.14 µM | 4.44 µM |  | 6.96 µM |  |  |  |  |  |  |  |  |  |
| O=C1CSC(c2c[nH]c3ccccc23)N1c1ccc(Cl)cc1Cl (stereo not drawn) | > 100 µM |  | > 100 µM | > 100 µM |  | > 100 µM | > 100 µM | > 100 µM | > 100 µM |  |  |  |  |  |  |  |  |  |  |
| CC[C@H](NC(=O)OC(C)(C)C)C(=O)NCP(=O)(OCc1ccc([N+](=O)[O-])cc1)OCc1ccc([N+](=O)[O-])cc1 | > 100 µM | > 100 µM | > 100 µM |  | 69.7 µM | > 100 µM | > 100 µM | 51.9 µM | > 100 µM | > 100 µM |  |  |  |  |  |  |  |  |  |
| CCN(CC)C(=S)N/N=C(/c1ccccc1)c1ccccn1 | 37 µM | 26.2 µM | 6.72 µM | 8.63 µM | 5.39 µM | > 100 µM | 0.794 µM |  | > 43.3 µM | 11 µM |  |  |  |  |  |  |  |  |  |
| COc1cc(N=Nc2ccc(OC)c(S(=O)(=O)O)c2)c(C)cc1N=Nc1ccc(/C=C/c2ccc(N=[N+]([O-])c3ccc(/C=C/c4ccc(N=Nc5cc(C)c(N=Nc6ccc(OC)c(S(=O)(=O)O)c6)cc5OC)cc4S(=O)(=O)O)c(S(=O)(=O)O)c3)cc2S(=O)(=O)O)c(S(=O)(=O)O)c1 | > 100 µM | > 100 µM | > 100 µM | > 100 µM |  | > 100 µM |  | > 100 µM | > 100 µM |  |  |  |  |  |  |  |  |  |  |
| CCOC(=O)c1c(SCc2cc(=O)[nH]c(=O)[nH]2)n(-c2ccccc2)c(=S)n(-c2ccccc2)c1=O | > 100 µM | > 100 µM | > 100 µM | > 100 µM | > 100 µM | > 100 µM | > 100 µM | > 100 µM |  | > 100 µM |  |  |  |  |  |  |  |  |  |
| COC1(CC[C@H](C)COC2OC(CO)C(O)C(O)C2O)O[C@H]2C[C@H]3[C@@H]4CC=C5C[C@@H](OC6OC(CO)C(OC7OC(C)C(O)C(O)C7O)C(O)C6OC6OC(C)C(O)C(O)C6O)CC[C@]5(C)[C@H]4CC[C@]3(C)[C@H]2[C@@H]1C (stereo partly drawn) | > 27.9 µM | 13.6 µM | 20.1 µM | 18.4 µM | 29.4 µM | 12.4 µM |  | 21.6 µM | 19.2 µM | 3.26 µM |  |  |  |  |  |  |  | 6.95 µM |  |
